Test results published in ChEMBL document CHEMBL1201862, “PubChem BioAssay data set” (2004).
Calls of active or inactive are those of the source.

Key:
[1] = target: 5-hydroxytryptamine receptor 1A (Homo sapiens, UniProt P08908); assay type: functional
Leucine aminopeptidase = target: T1, Leucine aminopeptidase (Plasmodium falciparum 3D7, UniProt Q8IL11); assay: P. falciparum M17LAP inhibitors, primary screen, biochemical, fluorogenic H-Leu-NHMec substrate, 1536-well (AID 1619); assay type: functional
T1 sequence (Q8IL11 whole entry): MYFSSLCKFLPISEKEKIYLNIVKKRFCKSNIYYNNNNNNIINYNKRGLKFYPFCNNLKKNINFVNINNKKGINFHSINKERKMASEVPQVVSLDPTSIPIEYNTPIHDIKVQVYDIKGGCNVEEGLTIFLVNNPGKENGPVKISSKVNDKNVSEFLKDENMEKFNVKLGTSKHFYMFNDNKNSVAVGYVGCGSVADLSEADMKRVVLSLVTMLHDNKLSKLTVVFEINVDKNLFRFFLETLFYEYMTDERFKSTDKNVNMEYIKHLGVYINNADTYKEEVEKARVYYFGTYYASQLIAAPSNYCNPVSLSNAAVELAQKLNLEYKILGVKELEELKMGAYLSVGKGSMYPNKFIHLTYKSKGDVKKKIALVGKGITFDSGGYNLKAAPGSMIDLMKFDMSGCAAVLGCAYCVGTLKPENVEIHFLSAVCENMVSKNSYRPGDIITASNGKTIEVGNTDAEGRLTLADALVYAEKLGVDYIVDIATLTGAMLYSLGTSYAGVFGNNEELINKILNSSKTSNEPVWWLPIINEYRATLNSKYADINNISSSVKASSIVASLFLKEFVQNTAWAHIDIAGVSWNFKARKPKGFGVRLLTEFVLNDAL

[2] = target: T2, RNA-binding protein pos-1 (Caenorhabditis elegans, UniProt G5EF15); assay: disruptors of C. elegans POS-1 RNA interaction – biochemical, fluorescence polarization, dose response (AID 1964);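 note: purified POS-1 fused to maltose binding protein made in E. coli; potency of compounds blocking POS-1 binding to fluorescent RNA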
T2 sequence (G5EF15 whole entry): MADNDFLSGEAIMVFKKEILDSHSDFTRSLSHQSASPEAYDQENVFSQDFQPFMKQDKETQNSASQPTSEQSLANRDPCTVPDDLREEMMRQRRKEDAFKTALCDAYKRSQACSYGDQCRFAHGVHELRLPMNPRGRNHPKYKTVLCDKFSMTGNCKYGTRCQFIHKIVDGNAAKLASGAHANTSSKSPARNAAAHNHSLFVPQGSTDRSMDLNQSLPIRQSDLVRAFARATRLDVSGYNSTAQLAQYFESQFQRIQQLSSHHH

SUMO-activating enzyme [3] = target: T3, SUMO-activating enzyme (Homo sapiens, UniProt Q9UBT2); assay: blockers of UBC9-mediated SUMO conjugation – biochemical, AlphaScreen, SUMOylation inhibitor project, confirmation (AID 2018); assay type: functional
[4] = target: T4, Zinc finger protein mex-5 (Caenorhabditis elegans, UniProt Q9XUB2); assay: potency of MEX-5 RNA-binding blockers – biochemical, C. elegans, fluorescence polarization, dose response (AID 1960)
T4 sequence (Q9XUB2 whole entry): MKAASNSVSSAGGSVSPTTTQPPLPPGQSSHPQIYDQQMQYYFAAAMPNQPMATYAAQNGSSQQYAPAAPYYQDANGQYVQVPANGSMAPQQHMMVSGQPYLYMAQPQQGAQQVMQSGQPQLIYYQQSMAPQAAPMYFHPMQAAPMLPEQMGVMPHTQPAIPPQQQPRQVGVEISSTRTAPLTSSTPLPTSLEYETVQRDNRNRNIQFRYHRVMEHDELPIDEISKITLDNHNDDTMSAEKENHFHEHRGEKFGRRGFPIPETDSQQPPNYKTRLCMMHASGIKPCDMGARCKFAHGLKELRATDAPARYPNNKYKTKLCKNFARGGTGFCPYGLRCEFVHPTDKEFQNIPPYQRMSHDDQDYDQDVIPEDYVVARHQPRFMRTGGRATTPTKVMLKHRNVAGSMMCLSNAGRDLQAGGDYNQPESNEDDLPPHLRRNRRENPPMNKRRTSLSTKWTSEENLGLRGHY

Large T antigen = Large T antigen (Simian virus 40, UniProt P03070); assay type: functional, Betapolyomavirus macacae;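 note: Confirmatory-stage PubChem screen for compounds that inhibit SV40 T antigen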
SUMO-activating enzyme [5] = target: T3, SUMO-activating enzyme; assay: blockers of SAE1/SAE2–UBC9 SUMO transfer – biochemical, HTRF, uHTS, primary screen (AID 2006); assay type: protein-complex assay
[6] = target: T5, Induced myeloid leukemia cell differentiation protein Mcl-1 (Homo sapiens, UniProt Q07820); assay: blockers of MCL1 binding to BIM peptide – biochemical, fluorescence polarization, BIM-BH3 peptide, 1536-well, dose response (AID 2217)
Bcl-2-like protein 1 = Bcl-2-like protein 1 (Homo sapiens, UniProt Q07817); assay: blockers of BCLXL peptide binding – biochemical, fluorescence polarization, 1536-well, selectivity assay for MCL1 inhibitor project, dose response (AID 2218)
[7] = target: T5, Induced myeloid leukemia cell differentiation protein Mcl-1; assay type: functional
Nonstructural protein 1 = Nonstructural protein 1 (Influenza A virus, UniProt Q194T2); assay type: functional, Influenza A virus (A/California/07/2009(H1N1))
Cysteine protease ATG4B = target: T6, Cysteine protease ATG4B (Homo sapiens, UniProt Q9Y4P1); assay type: functional;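 note: Fluorescence-based dose-response confirmation assay measuring inhibition of ATG4B activity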
T6 sequence (Q9Y4P1 whole entry): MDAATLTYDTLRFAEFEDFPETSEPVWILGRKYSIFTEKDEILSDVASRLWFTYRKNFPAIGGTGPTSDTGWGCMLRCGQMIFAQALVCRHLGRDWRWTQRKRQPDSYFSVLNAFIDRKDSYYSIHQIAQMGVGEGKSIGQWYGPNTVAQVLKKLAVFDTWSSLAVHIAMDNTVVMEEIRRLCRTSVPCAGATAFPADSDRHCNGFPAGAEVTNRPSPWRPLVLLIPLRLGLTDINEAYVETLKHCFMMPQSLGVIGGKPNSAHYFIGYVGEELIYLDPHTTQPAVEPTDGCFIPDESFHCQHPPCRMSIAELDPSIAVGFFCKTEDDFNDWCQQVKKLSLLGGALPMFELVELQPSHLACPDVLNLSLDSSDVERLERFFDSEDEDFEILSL

Phospholipase A2 = Phospholipase A2 (Homo sapiens, UniProt P04054); assay type: functional;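 note: confirmatory dose-response counterscreen on phospholipase A2, testing hits that came from an ultra-high-throughput screen for ATG4B inhibitors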
Genome polyprotein = Genome polyprotein (dengue virus type 2, UniProt P29990); assay: flavivirus cap methylation enzyme inhibition – biochemical, confirmation dose response, primary screen (AID 588689); assay type: functional
[8] = target: DNA (cytosine-5)-methyltransferase 1 (Homo sapiens, UniProt P26358); assay: inhibition of DNA methylation by DNMT1 – biochemical, fluorescent molecular beacon, confirmation (AID 602386); assay type: functional
[9] = target: Protein disulfide-isomerase (Homo sapiens, UniProt P07237); assay: inhibition of PDI-driven insulin aggregation – biochemical, turbidity, absorbance, cherry-picked samples, dose response (AID 602350); assay type: functional
[10] = Luminescent dose response cell-based high throughput screening assay for inhibitors of the Janus kinase 2 mutant JAK2V617F. [Related pubchem assays: 1446 (Primary screen.), 1521 (Confirmation assay.), 1486 (Counter screen.)]; assay type: functional
[11] = Trypanosoma cruzi growth suppression in host cells – NIH3T3 host cells, beta-gal luminescence, confirmation (AID 2044); assay type: functional, cell-based;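 note: intracellular parasites grown in NIH/3T3 mouse fibroblasts as host cells; luminescent beta-galactosidase reporter signal from transgenic T. cruzi replicating inside host cells; inhibitors lower the luminescence signal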
[12] = target: T7, DNA repair and recombination protein RAD54-like (Homo sapiens, UniProt Q92698); assay: RAD54 Holliday junction migration blockers – biochemical, fluorescence, cherry-picked samples, dose series, confirmation (AID 651657); assay type: functional
T7 sequence (Q92698 whole entry): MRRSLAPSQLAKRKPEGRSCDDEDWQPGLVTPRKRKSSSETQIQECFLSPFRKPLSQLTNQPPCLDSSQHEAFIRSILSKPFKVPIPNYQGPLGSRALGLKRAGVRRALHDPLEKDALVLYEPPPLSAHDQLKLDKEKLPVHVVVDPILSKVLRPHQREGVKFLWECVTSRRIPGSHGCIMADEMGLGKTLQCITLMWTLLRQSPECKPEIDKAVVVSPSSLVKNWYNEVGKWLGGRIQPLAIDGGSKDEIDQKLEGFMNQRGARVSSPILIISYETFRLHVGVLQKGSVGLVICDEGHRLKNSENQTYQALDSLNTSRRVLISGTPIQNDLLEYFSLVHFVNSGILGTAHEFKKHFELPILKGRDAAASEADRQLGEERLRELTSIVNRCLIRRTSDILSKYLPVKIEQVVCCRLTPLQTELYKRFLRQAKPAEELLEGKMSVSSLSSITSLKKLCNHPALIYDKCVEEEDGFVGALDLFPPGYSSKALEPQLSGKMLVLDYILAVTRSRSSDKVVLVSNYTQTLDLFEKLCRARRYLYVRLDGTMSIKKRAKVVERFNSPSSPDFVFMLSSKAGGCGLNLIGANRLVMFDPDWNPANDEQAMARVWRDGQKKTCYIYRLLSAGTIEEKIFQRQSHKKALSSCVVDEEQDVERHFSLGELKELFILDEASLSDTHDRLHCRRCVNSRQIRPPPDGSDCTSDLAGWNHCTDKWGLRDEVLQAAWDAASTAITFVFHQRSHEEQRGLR

[13] = Luminescence Cell-Based Dose Response to Identify Activators of 5'UTR Stem-Loop Driven Prion Protein mRNA Translation in H4-C Neuroglioblastoma Cells. [Related pubchem assays: 1829 (Project Summary), 1814 (Primary HTS)]; assay type: functional
[14] = Luminescence Cell-Based Dose Response HTS to Identify Activators of Luciferase Translation or Activity in H4 […] Cells. [Related pubchem assays: 1829 (Project Summary), 1814 (Primary HTS)]; assay type: functional
[15] = Luminescence Cell-Based Dose Response to Identify Activators of Luciferase Translation or Activity in H4-C Neuroglioblastoma Cells. [Related pubchem assays: 1829 (Project Summary), 1814 (Primary HTS)]; assay type: functional
[16] = Luminescence Cell-Based Dose Confirmation to Identify Activators of 5'UTR Stem-Loop Driven Alpha-Synuclein mRNA Translation in H4 Neuroglioblastoma Cells. [Related pubchem assays: 1829 (Project Summary), 1814 (Primary HTS)]; assay type: functional
[17] = M. tuberculosis H37Rv growth inhibitors, H37Rv strain (AID 1626); assay type: functional

T3 sequence (Q9UBE0 whole entry): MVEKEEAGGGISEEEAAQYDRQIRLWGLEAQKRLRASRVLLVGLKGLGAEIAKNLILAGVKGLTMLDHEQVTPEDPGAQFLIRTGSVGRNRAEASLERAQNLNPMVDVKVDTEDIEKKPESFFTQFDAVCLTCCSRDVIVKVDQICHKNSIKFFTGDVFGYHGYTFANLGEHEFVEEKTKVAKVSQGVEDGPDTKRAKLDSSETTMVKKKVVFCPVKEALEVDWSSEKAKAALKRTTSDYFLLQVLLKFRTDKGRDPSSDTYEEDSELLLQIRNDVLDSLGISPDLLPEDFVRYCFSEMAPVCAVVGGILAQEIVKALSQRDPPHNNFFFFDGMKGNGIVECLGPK
T3 sequence (Q9UBT2 whole entry): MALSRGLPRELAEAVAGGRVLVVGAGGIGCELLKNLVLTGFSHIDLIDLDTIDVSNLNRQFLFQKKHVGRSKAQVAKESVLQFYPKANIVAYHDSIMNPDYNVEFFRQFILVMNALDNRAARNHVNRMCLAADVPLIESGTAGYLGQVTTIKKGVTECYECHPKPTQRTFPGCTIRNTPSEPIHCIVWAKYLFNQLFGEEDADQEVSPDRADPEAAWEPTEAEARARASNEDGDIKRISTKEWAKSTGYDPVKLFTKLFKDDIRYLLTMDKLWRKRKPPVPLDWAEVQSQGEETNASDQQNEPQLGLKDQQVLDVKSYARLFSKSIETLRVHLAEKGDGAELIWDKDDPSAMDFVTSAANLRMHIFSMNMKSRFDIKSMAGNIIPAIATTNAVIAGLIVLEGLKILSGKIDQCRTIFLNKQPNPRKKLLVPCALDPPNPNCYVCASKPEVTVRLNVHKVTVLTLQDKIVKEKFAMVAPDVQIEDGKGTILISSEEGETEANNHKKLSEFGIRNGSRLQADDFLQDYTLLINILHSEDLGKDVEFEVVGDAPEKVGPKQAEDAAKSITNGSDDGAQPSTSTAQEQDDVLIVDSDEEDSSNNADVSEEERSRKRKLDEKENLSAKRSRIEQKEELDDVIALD
T5 sequence (Q07820 whole entry): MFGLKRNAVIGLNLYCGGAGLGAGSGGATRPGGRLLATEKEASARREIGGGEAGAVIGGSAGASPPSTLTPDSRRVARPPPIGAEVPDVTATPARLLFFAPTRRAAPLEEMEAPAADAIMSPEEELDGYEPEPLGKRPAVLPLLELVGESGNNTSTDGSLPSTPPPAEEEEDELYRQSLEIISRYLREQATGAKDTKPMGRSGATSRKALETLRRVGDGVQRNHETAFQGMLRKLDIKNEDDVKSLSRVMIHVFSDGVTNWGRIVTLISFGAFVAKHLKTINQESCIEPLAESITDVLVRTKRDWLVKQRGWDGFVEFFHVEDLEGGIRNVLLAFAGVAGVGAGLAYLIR
Sequence of Genome polyprotein (P29990 2492-3391 limits assumed): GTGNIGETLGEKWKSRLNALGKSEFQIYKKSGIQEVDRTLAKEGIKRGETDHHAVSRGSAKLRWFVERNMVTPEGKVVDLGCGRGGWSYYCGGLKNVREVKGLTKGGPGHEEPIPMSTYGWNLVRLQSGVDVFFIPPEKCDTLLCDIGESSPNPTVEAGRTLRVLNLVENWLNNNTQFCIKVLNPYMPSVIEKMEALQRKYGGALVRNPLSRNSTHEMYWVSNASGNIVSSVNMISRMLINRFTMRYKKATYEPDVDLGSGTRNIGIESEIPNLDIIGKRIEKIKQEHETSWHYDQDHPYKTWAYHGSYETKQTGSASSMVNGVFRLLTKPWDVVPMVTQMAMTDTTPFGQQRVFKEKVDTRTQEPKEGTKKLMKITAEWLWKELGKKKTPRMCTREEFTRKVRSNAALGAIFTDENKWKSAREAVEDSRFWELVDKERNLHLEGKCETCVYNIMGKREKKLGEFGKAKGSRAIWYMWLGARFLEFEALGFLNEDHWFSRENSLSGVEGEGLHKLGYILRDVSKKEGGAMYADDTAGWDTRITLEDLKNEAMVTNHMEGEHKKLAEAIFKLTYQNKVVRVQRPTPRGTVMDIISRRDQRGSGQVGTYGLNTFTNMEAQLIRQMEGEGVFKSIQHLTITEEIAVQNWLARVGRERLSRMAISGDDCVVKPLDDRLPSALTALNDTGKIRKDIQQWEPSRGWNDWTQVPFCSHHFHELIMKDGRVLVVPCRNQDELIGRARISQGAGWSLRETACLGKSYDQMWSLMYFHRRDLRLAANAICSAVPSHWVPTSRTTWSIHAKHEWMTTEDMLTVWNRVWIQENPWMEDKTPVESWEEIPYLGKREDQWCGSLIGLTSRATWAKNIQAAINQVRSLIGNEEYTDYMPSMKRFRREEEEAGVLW
Sequence of Nonstructural protein 1 (Q194T2 whole entry): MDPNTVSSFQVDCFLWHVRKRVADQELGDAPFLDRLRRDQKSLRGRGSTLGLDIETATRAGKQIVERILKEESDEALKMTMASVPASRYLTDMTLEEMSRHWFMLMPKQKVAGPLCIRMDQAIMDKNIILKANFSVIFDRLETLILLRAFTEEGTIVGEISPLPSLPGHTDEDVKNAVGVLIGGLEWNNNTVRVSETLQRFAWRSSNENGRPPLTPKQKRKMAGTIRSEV
Sequence of Phospholipase A2 (P04054 whole entry): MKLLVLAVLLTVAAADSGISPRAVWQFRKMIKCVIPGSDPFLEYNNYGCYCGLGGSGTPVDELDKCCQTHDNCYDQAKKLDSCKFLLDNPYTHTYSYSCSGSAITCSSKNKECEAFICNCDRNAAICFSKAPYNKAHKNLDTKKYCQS
Sequence of Protein disulfide-isomerase (P07237 whole entry): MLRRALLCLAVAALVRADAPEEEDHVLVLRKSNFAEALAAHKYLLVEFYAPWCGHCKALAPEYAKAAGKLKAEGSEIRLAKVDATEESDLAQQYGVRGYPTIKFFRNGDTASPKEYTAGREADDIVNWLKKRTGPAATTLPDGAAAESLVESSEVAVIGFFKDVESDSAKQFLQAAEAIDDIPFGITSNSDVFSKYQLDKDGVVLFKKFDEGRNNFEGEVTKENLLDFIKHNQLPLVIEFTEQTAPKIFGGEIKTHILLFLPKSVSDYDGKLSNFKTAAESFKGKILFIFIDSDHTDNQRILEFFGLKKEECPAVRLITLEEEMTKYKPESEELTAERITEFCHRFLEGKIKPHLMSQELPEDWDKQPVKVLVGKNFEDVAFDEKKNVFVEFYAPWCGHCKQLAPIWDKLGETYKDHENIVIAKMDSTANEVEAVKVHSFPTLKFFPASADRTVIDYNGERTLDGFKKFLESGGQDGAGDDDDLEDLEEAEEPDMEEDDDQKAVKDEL
Sequence of 5-hydroxytryptamine receptor 1A (P08908 whole entry): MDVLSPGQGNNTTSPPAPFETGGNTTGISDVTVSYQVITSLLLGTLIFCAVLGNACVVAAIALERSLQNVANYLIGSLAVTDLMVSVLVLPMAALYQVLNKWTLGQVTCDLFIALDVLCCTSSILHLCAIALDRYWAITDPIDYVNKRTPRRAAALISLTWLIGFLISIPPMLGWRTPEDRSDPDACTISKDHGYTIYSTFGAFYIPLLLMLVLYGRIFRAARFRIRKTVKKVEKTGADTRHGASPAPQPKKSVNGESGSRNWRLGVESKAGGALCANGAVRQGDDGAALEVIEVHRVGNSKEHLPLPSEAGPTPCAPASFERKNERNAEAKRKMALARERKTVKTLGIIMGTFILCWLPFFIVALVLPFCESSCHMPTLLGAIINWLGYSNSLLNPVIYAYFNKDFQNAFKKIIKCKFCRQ
Sequence of Large T antigen (P03070 whole entry): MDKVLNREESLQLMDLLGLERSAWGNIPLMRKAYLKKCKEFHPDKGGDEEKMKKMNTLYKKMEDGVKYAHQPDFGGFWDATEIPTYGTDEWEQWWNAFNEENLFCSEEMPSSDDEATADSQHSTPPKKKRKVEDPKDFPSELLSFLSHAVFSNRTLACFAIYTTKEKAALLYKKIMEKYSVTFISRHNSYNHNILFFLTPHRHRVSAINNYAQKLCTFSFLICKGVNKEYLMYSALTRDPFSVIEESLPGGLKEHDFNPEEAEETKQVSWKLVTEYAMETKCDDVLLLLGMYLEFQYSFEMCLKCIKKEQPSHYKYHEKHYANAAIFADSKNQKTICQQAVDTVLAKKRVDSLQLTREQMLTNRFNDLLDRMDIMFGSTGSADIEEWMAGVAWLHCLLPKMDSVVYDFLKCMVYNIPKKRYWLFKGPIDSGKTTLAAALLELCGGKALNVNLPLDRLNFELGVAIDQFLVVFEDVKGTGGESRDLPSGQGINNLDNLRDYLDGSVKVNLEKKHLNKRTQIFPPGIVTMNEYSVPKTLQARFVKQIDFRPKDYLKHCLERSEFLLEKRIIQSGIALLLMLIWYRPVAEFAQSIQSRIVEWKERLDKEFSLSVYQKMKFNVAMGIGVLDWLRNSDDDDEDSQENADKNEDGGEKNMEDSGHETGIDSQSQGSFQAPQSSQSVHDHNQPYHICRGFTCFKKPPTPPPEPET
Sequence of Bcl-2-like protein 1 (Q07817 whole entry): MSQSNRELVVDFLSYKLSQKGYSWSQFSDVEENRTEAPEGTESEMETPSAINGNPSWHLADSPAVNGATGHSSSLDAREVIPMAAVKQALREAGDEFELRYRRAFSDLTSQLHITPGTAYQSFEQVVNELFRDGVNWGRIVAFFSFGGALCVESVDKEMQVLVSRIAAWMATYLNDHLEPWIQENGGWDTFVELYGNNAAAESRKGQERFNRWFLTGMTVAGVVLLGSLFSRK

SMILES: CN1CCN(/C(=N\O)c2nonc2N)CC1
- EC50 [1]: > 50 µM (not active)

SMILES: COc1cccc(NS(=O)(=O)c2ccc3c(c2)C2C=CCC2C(c2ccc(C(=O)O)cc2)N3)c1 (centres undefined)
- IC50 (Leucine aminopeptidase): 15.8 µM (active)
- EC50 [2]: 18 µM (inconclusive)
- IC50 (SUMO-activating enzyme [3]): 2.15 µM (active)
- EC50 [4]: 12.5 µM (active)
- IC50 (Large T antigen): > 100 µM (active)
- IC50 (SUMO-activating enzyme [5]): 9.5 µM (active)
- IC50 [6]: 18.9 µM (not active)
- IC50 (Bcl-2-like protein 1): 64.9 µM (not active)
- IC50 [7]: 2.32 µM (active)
- IC50 (Nonstructural protein 1): > 100 µM (active)
- IC50 (Cysteine protease ATG4B): 10.7 µM (active)
- IC50 (Phospholipase A2): 10.6 µM (active)
- IC50 (Genome polyprotein): 67 µM (active)
- IC50 [8]: 7.94 µM (active)
- AC50 [9]: 15.8 µM (active)

SMILES: CC1CCN(CCCNC(=O)c2cc3c(Cl)nc4ccccc4c3s2)CC1
- IC50 [10]: 0.96 µM (active)
- EC50 [11]: 2.1 µM (active)
- AC50 [12]: 11.7 µM (active)

SMILES: O=c1sc(N2CCN(c3ccccc3F)CC2)nc2ccsc12
- EC50 [13]: 0.309 µM (active)
- EC50 [14]: < 0.1 µM (inconclusive)
- EC50 [15]: 0.349 µM (active)
- EC50 [16]: 0.237 µM (active)

SMILES: O=C(Nc1nnc(-c2ccc3c(c2)OCCO3)o1)C1CCCCC1
- IC50 [17]: > 100 µM (active)
